According to ChEMBL document CHEMBL5260832, “Hepatoprotective natural triterpenoids” (Eur J Med Chem, 2018):

Experiments:
HepG2 = assay: Cytoprotective activity against t-BHP induced cell death in human HepG2 cells assessed as cell survival rate at 10 uM relative to control; type: functional
Hepatocyte [1] = assay: Hepatoprotective activity against CCl4/GaIN-induced cytotoxicity in rat hepatocytes assessed as decrease in GPT level at 1.0 ug/mL relative to control; type: functional; design: scale not given: the % may be the effect or the level left; settings: dose 1 µg/ml
Huh-7 [2] = assay: Hepatoprotective activity in human Huh-7 cells assessed as reduction in AST level; type: functional; design: scale not given: the % may be the effect or the level left
Mus musculus [3] = assay: Hepatoprotective activity against CCl4-induced liver injury mouse model assessed as reduction in ALT at 20 ug/mL, ip relative to control (reference value: 13.23 IU/L); type: functional; settings: dose 20.0 µg/ml
Huh-7 [4] = assay: Hepatoprotective activity against CCL4-induced mouse model in human Huh-7 cells assessed as decrease in ALT level at 100 ug/mL; type: functional; settings: dose 100.0 µg/ml
Mus musculus [5] = assay: Hepatoprotective activity against CCl4-induced liver injury mouse model assessed as reduction in MDA level at 20 ug/mL, ip relative to control (reference value: 9.27 IU/L); type: functional; settings: dose 20.0 µg/ml
Hepatocyte [6] = assay: Hepatoprotective activity against CCL4-induced rat hepatocyte toxicity assessed as decrease in GPT level at 3.33 mg/mL preincubated for 30 mins followed by CCL4 addition and measured after 180 mins by colorimetric method; type: functional; settings: time 210.0 min
Mus musculus [7] = assay: Hepatoprotective activity against D-GaIN/LPS induced liver injury mouse model assessed as reduction in LDH level at 100 mg/kg, ip relative to control; type: functional; design: scale not given: the % may be the effect or the level left
Mus musculus [8] = assay: Hepatoprotective activity against CCl4-induced liver injury mouse model assessed as increase in SOD level at 20 ug/mL, ip relative to control (reference value: 5.89 IU/L); type: functional; settings: dose 20.0 µg/ml
Mus musculus [9] = assay: Hepatoprotective activity against D-GaIN/LPS induced liver injury mouse model assessed as reduction in ALT at 100 mg/kg, ip relative to control; type: functional; design: scale not given: the % may be the effect or the level left
Hepatocyte [10] = assay: Hepatoprotective activity against CCL4-induced rat hepatocyte toxicity assessed as decrease in ALP level at 3.33 mg/mL preincubated for 30 mins followed by CCL4 addition and measured after 180 mins by colorimetric method; type: functional; settings: time 210.0 min
Mus musculus [11] = assay: Hepatoprotective activity against D-GaIN/LPS induced liver injury mouse model assessed as reduction in AST at 100 mg/kg, ip relative to control; type: functional; design: scale not given: the % may be the effect or the level left
Hepatocyte [12] = assay: Hepatoprotective activity against CCL4-induced rat hepatocyte toxicity assessed as decrease in GOT level at 3.33 mg/mL preincubated for 30 mins followed by CCL4 addition and measured after 180 mins by colorimetric method; type: functional; settings: time 210.0 min
Mus musculus [13] = assay: Hepatoprotective activity against CCl4-induced liver injury mouse model assessed as reduction in AST at 20 ug/mL, ip relative to control (reference value: 9.27 IU/L); type: functional; settings: dose 20.0 µg/ml
[14] = Hepatotoxicity in DMF-induced ICR mouse model assessed as change in SOD level, po measured after 7 days; type: toxicity, organism-based; settings: in vivo, 168 h, time 7 day
[15] = Hepatotoxicity in DMF-induced ICR mouse model assessed as change in GSH-PX level, po measured after 7 days; type: toxicity, organism-based; settings: in vivo, 168 h, time 7 day
[16] = Hepatotoxicity in DMF-induced ICR mouse model assessed as change in CAT level, po measured after 7 days; type: toxicity, organism-based; settings: in vivo, 168 h, time 7 day
[17] = Hepatotoxicity in CCl4-induced ICR mouse model assessed as change in SOD level, po measured after 7 days; type: toxicity, organism-based; settings: in vivo, 168 h, time 7 day
[18] = Hepatotoxicity in CCl4-induced ICR mouse model assessed as change in GSH-PX level, po measured after 7 days; type: toxicity, organism-based; settings: in vivo, 168 h, time 7 day
[19] = Hepatotoxicity in CCl4-induced ICR mouse model assessed as change in CAT level, po measured after 7 days; type: toxicity, organism-based; settings: in vivo, 168 h, time 7 day
Mus musculus [20] = species: Mus musculus; assay: Hepatoprotective activity in CCl4-induced toxicity in liver injured mouse assessed as increase in inhibition of liver damage at 50 uM relative to control; type: functional; design: scale not given: the % may be the effect or the level left
Mus musculus [21] = species: Mus musculus; assay: Hepatoprotective activity against D-GaIN-induced liver injury mouse model assessed as cell death with increasing cell survival rates at 10 uM relative to control; type: functional
Mus musculus [22] = species: Mus musculus; assay: Hepatoprotective activity in CCl4-induced mouse assessed as change in SGPT level (reference value: 6.9 mmol/L); type: functional

CC(=O)C[C@@H](C)[C@H]1CC[C@@]2(C)[C@@H]3C(=O)C=C4[C@@H](CC[C@@H](O)C4(C)C)[C@]3(C)CC[C@]12C
Activity (HepG2): 56.9%

CC1(C)CC[C@]2(C(=O)O[C@@H]3O[C@H](CO)[C@@H](O)[C@H](O)[C@H]3O)CC[C@]3(C)C(=CC[C@@H]4[C@@]5(C)CC[C@H](O[C@@H]6O[C@H](C(=O)O)[C@@H](O)[C@H](O)[C@H]6O[C@@H]6O[C@H](CO)[C@@H](O)[C@H](O)[C@H]6O)C(C)(C)[C@@H]5CC[C@]43C)[C@@H]2C1 [GINSENOSIDE R0]
Activity (Hepatocyte [1]): 42%

C[C@@H]1CC[C@]2(C(=O)O)CC[C@]3(C)C(=CC[C@@H]4[C@@]5(C)C[C@@H](O)[C@@H](O)C(C)(C)[C@@H]5CC[C@]43C)[C@@H]2[C@]1(C)O [EUSCAPHIC ACID]
Activity (Huh-7 [2]): 48.8%

SILYMARIN
Activity (Mus musculus [3]): 4.82 U/ml
Activity (Huh-7 [4]): 10.2 U/ml
Activity (Mus musculus [5]): 3.84 nmol/mL
Activity (Hepatocyte [6]): 11.3 IU/L
Activity (Mus musculus [7]): 43%
Activity (Mus musculus [8]): 21.7 U/ml
Activity (Mus musculus [9]): 68%
Activity (Hepatocyte [10]): 13.7 IU/L
Activity (Mus musculus [11]): 66%
Activity (Hepatocyte [12]): 18.5 IU/L
Activity (Mus musculus [13]): 4.24 IU/L

C[C@@H]1O[C@@H](O[C@H]2[C@H](OC(=O)[C@]34CCC(C)(C)C[C@H]3C3=CC[C@@H]5[C@@]6(C(=O)O)CC[C@H](O)[C@@](C)(C(=O)O)[C@@H]6CC[C@@]5(C)[C@]3(C)CC4)O[C@H](C)[C@H](O)[C@@H]2O)[C@H](O)[C@H](O)[C@H]1O[C@@H]1O[C@H](CO)[C@@H](O[C@@H]2OC[C@@H](O)[C@H](O)[C@H]2O[C@@H]2OC[C@H](O)[C@H](O)[C@H]2O)[C@H](O)[C@H]1O
Activity [14]: 198.16 U/mg
Activity [15]: 59.91 U/mg
Activity [16]: 84.68 U/mg
Activity [17]: 221.03 U/mg
Activity [18]: 69.12 U/mg
Activity [19]: 87.1 U/mg

C[C@H]1[C@H](C)CC[C@]2(C(=O)O)CC[C@]3(C)C(=CC[C@@H]4[C@@]5(C)CC[C@H](O)[C@@](C)(CO)[C@@H]5CC[C@]43C)[C@H]12
Activity (Mus musculus [20]): 58.3%

CC1=CC[C@H]([C@@H](C)[C@H]2CC[C@@]3(C)[C@@H]4CC[C@@H](C(C)(C)O)[C@@]5(CCC(=O)O)C[C@@]45CC[C@@]23C)OC1=O
Activity (Mus musculus [21]): 35.7%

CC1(C)CC[C@]2(C(=O)O[C@@H]3O[C@H](CO)[C@@H](O)[C@H](O)[C@H]3O)CC[C@]3(C)C(=CC[C@@H]4[C@@]5(C)CC[C@H](O[C@@H]6O[C@H](C(=O)O)[C@@H](O)[C@H](O)[C@H]6O[C@@H]6OC[C@H](O)[C@H](O)[C@H]6O)C(C)(C)[C@@H]5CC[C@]43C)[C@@H]2C1
Activity (Hepatocyte [1]): 28%

CC1(C)CC[C@]2(C(=O)O)CC[C@]3(C)C(=CC[C@@H]4[C@@]5(C)CCC(OC(=O)/C=C/c6ccc(O)c(O)c6)C(C)(C)[C@@H]5CC[C@]43C)[C@@H]2C1 (some centres undefined)
Activity (Mus musculus [22]): 3.53 mmol/L
